Target: T1, human RXFP1 (Homo sapiens, UniProt Q9HBX9)
T1 sequence (Q9HBX9 1-757): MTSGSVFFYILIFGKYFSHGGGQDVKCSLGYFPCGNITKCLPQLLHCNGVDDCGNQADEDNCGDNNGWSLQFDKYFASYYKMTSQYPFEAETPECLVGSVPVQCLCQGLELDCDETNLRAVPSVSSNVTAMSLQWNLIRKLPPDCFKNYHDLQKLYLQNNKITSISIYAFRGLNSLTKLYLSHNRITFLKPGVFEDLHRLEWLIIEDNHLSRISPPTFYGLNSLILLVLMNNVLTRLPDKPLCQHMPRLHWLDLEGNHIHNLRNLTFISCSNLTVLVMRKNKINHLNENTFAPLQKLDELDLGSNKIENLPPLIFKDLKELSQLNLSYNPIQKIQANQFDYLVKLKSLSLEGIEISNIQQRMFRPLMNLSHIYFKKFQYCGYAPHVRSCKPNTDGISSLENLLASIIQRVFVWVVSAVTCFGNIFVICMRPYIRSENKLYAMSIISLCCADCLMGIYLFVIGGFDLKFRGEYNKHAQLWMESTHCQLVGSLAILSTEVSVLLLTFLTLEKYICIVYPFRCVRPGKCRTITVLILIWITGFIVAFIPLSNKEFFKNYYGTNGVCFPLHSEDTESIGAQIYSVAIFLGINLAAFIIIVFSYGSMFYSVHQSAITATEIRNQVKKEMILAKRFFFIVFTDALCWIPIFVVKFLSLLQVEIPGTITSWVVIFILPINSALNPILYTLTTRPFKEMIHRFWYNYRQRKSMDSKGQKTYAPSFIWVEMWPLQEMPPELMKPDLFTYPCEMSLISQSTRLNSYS
Assay: RXFP1 Hu cAMP (Test A)
Assay type: cell-based
Set-up: expressed in transfected cells; host or cells: Jump-In T-REx CHO-K1 cells (ThermoFisher), induced with 10 ng/ml doxycycline for 24 h
Settings: RXFP1 Hu cAMP; for EC50: read-out: Test A EC50
In short: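 Read-out is HTRF signal, inversely proportional to cAMP, converted to cAMP amount by standard curve. Stimulation occurred in inducible CHO-K1 cells expressing the human receptor with phosphodiesterases blocked by 0.5 mM IBMX.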

Row | Compound | Test A Sinf [%] | EC50 [nM]
1 | (1R,4s)-4-(2-Fluoro-4-methoxy-5-(((1S*,2S*,3R*,4R*)-3-((3-((trifluoromethyl)sulfonyl)phenyl)carbamoyl)bicyclo[2.2.1]heptan-2-yl)carbamoyl)phenoxy)-1-methylcyclohexane-1-carboxylic acid [Example 587] | 113 | –
2 | (1R,4s)-4-(2-fluoro-4-methoxy-5-(((3S*,4S*)-3-((3-((trifluoromethyl)sulfonyl)phenyl)carbamoyl)tetrahydro-2H-pyran-4-yl)carbamoyl)phenoxy)-1-methylcyclohexane-1-carboxylic acid [Example 519] | 101 | –
3 | O=C(O)c1ccc(-c2cc(C(=O)N[C@H]3[C@@H](C(=O)Nc4cccc(S(=O)(=O)C(F)(F)F)c4)[C@@H]4C=C[C@H]3C4)ccc2F)cc1 (racemic) [Example 305, rac-2′-Fluoro-5′-(((1R,2R,3S,4S)-3-((3-((trifluoromethyl)sulfonyl)phenyl)carbamoyl)bicyclo[2.2.1]hept-5-en-2-yl)carbamoyl)-[1,1′-biphenyl]-4-carboxylic acid] | – | > 40000
4 | COc1ccc(Oc2ccccc2C(=O)O)cc1C(=O)N[C@H]1[C@@H](C(=O)Nc2cccc(S(=O)(=O)C(F)(F)F)c2)[C@@H]2C=C[C@H]1C2 (racemic) [Example 429] | – | > 40000
5 | COc1cc(F)c(-c2nnc(CCC(=O)O)s2)cc1C(=O)N[C@H]1C(C(=O)Nc2cccc(S(=O)(=O)C(F)(F)F)c2)[C@@H]2CC[C@H]1C2 (stereo partly drawn) [Example 322, 3-(5-(2-Fluoro-4-methoxy-5-(((1S,2R,3S,4R)-3-((3-((trifluoromethyl)sulfonyl)phenyl)carbamoyl)bicyclo[2.2.1]heptan-2-yl)carbamoyl)phenyl)-1,3-,4-thiadiazol-2-yl)propanoic acid] | 107 | 800
6 | (1R,4s)-4-(2-Cyano-4-methoxy-5-(((1S*,2R*)-2-(((1-methylcyclobutyl)methyl)carbamoyl)cyclobutyl)carbamoyl)phenoxy)-1-methylcyclohexane-1-carboxylic acid [Example 573] | 94 | –
7 | (1R,4s)-4-(2-Fluoro-4-methoxy-5-(((3S*,4R*)-4-(neopentylcarbamoyl)tetrahydrofuran-3-yl)carbamoyl)phenoxy)-1-(hydroxymethyl)cyclohexane-1-carboxylic acid [Example 579] | 120 | –
8 | (1R,4s)-4-(2-fluoro-4-methoxy-5-(((1S*,2S*,5S*)-2-methoxy-5-((3-((trifluoromethyl)sulfonyl)phenyl)carbamoyl)cyclopentyl)carbamoyl)phenoxy)-1-methylcyclohexane-1-carboxylic acid [Example 527] | 101 | –
9 | COc1cc(F)c(O[C@H]2CC[C@@](C)(C(=O)O)CC2)cc1C(=O)NC1COCC1C(=O)NCC(C)(C)C (single isomer, unassigned) [Example 566, (1R,4s)-4-(2-Fluoro-4-methoxy-5-(((3S*,4R*)-4-(neopentylcarbamoyl)tetrahydrofuran-3-yl)carbamoyl)phenoxy)-1-methylcyclohexane-1-carboxylic acid] | – | > 40000
10 | COc1cc(F)c(O[C@H]2CC[C@@](C)(C(=O)O)CC2)cc1C(=O)NC1C(OC)CCC1C(=O)Nc1cccc(S(=O)(=O)C(F)(F)F)c1 (single isomer, unassigned) [Example 526, (1R,4s)-4-(2-Fluoro-4-methoxy-5-(((1S*,2S*,5S*)-2-methoxy-5-((3-((trifluoromethyl)sulfonyl)phenyl)carbamoyl)cyclopentyl)carbamoyl)phenoxy)-1-methylcyclohexane-1-carboxylic acid] | – | > 40000

Continued by falling EC50, values first:

Row | Test A Sinf [%] | EC50 [nM] | Compound
11 | 100 | 450 | COc1cc(C#N)c(O[C@H]2CC[C@@](C)(C(=O)O)CC2)cc1C(=O)N[C@@H]1[C@H]2CC[C@H](C2)[C@@H]1C(=O)NCCC1CC1 [Example 133]
12 | 102 | 420 | COc1cc(F)c(-c2ccc(C(=O)O)cc2F)cc1C(=O)N[C@H]1[C@@H](C(=O)Nc2cccc(S(=O)(=O)C(F)(F)F)c2)[C@@H]2C=C[C@H]1C2 (racemic) [Example 227]
13 | 98 | 320 | COc1cc(F)c(O[C@H]2CC[C@@](OC)(C(=O)O)CC2)cc1C(=O)N[C@@H]1[C@H]2CC[C@H](C2)[C@@H]1C(=O)NCC1(C)CCC1 [Example 506, (1R,4r)-4-(2-Fluoro-4-methoxy-5-(((1S,2R,3S,4R)-3-(((1-methylcyclobutyl)methyl)carbamoyl)bicyclo[2.2.1]heptan-2-yl)carbamoyl)phenoxy)-1-methoxycyclohexane-1-carboxylic acid]
14 | 93 | 240 | COc1cc(F)c(OC2CCC(CO)(C(=O)O)CC2)cc1C(=O)N[C@H]1[C@H]2CC[C@H](C2)[C@H]1C(=O)Nc1cccc(S(=O)(=O)C(F)(F)F)c1 (relative stereo) [Example 585, (1R,4s)-4-(2-Fluoro-4-methoxy-5-(((1S*,2S*,3R*,4R*)-3-((3-((trifluoromethyl)sulfonyl)phenyl)carbamoyl)bicyclo[2.2.1]heptan-2-yl)carbamoyl)phenoxy)-1-(hydroxymethyl)cyclohexane-1-carboxylic acid]
15 | 96 | 170 | COc1cc(F)c(O[C@H]2CC[C@@](C)(C(=O)O)CC2)cc1C(=O)NC1C2CCC(O2)C1C(=O)NCC1(C)CCC1 (single isomer, unassigned) [Example 530, (1R,4s)-4-(2-Fluoro-4-methoxy-5-(((1S*,2S*,3R*,4R*)-3-(((1-methylcyclobutyl)methyl)carbamoyl)-7-oxabicyclo[2.2.1]heptan-2-yl)carbamoyl)phenoxy)-1-methylcyclohexane-1-carboxylic acid]
16 | 100 | 120 | COc1cc(F)c(O[C@H]2CC[C@@](C)(C(=O)O)CC2)cc1C(=O)N[C@@H]1[C@H]2CC[C@H](C2)[C@@H]1C(=O)N[C@H](C)C(C)(C)C#N [Example 615]
17 | 132 | 110 | COc1cc(C#N)c(O[C@H]2CC[C@@](C)(C(=O)O)CC2)cc1C(=O)Nc1cc(C)ccc1C(=O)NCC1(C)CC1 [Example 174]
18 | 101 | 31 | COc1cc(F)c(O[C@H]2CC[C@@](C)(C(=O)O)CC2)cc1C(=O)N[C@@H]1[C@H]2OCO[C@H]2C[C@@H]1C(=O)Nc1cccc(S(=O)(=O)C(F)(F)F)c1 (racemic) [Example 395, (1R,4s)-4-(2-Fluoro-4-methoxy-5-(((3aRS,4SR,5SR,6aSR)-5-((3-((trifluoromethyl)sulfonyl)phenyl)carbamoyl)tetrahydro-4H-cyclopenta[d][1,3]dioxol-4-yl)carbamoyl)phenoxy)-1-methylcyclohexane-1-carboxylic acid]
19 | 112 | 13 | COc1cc(F)c(O[C@H]2CC[C@@](OC)(C(=O)O)CC2)cc1C(=O)N[C@@H]1[C@@H]2CC[C@@H](C2)[C@@H]1C(=O)Nc1cccc(S(=O)(=O)C(F)(F)F)c1 [Example 508, (1R,4r)-4-(2-Fluoro-4-methoxy-5-(((1R,2R,3S,4S)-3-((3-((trifluoromethyl)sulfonyl)phenyl)carbamoyl)bicyclo[2.2.1]heptan-2-yl)carbamoyl)phenoxy)-1-methoxycyclohexane-1-carboxylic acid]
20 | 104 | 8 | COc1cc(F)c(O[C@H]2CC[C@@](C)(C(=O)O)CC2)cc1C(=O)NC1CCCCCC1C(=O)Nc1cccc(S(=O)(=O)C(F)(F)F)c1 (single isomer, unassigned) [Example 516, (1R,4s)-4-(2-Fluoro-4-methoxy-5-(((1S*,2R*)-2-((3-((trifluoromethyl)sulfonyl)phenyl)carbamoyl)cycloheptyl)carbamoyl)phenoxy)-1-methylcyclohexane-1-carboxylic acid]

Source: patent US11667602B2, “Compounds and their use” (AstraZeneca AB, priority 2020, dated 2023)
